Consider five compounds from US9486506B2 (Novo Nordisk A/S, priority 2011, dated 2016).

Data set [1] can be described thus: Assay (XI) Pharmacokinetic study in minipigs. Type of data set: in vivo, Göttingen minipigs. The conditions noted are these: both sexes, Göttingen, minipig, plasma, iv, i.v. administration, terminal half-life, read-out: iv PK minipig [T½] (converted). The procedure:
Buffer: • 50 mM Dinatriumphosphatdihydrat • 184 mM Propylenglycol • 58 mM Phenol • pH adjusted to 8.15 with H3PO4. In cases where pH was adjusted to 8.15 after re-suspension of analogues, 0.2 M NaOH was used. Assay (XI) Pharmacokinetic Study in Minipigs
This is done in a pharmacokinetic (PK) study, whereamong other parameters the terminal half-life and the clearance of the derivative in question is determined. Increasing the terminal half-life and decreasing the clearance means that the compound of study is eliminated slower from the body.
Male or female Göttingen minipigs were obtained from Ellegaard Göttingen Minipigs (Dalmose, Denmark) approximately 7-14 months of age and weighing from approximately 16-35 kg were used in the studies. The minipigs were housed either individually (pigs with permanent catheters) or in a group and fed restrictedly once or twice daily with SDS minipig diet (Special Diets Services, Essex, UK). In some studies two permanent central venous catheters were implanted in vena cava caudalis or cranialis in each animal after at least 2 weeks of acclimatisation. […] On each dosing occasion these pigs were instrumented with a venflon in one ear vein through which the derivatives were dosed. Blood sampling was done by venipuncture in v. jugularis or v. cava cranialis
The animals were either unfasted or fasted for approximately 18 h before dosing and from 0 to 4 h after dosing, but had ad libitum access to water during the whole period.
Intravenous injections (the volume corresponding to usually 2-3 nmol/kg, for example 0.1 ml/kg) of the compounds were given through one catheter or through the venflon, and blood was sampled at predefined time points for up till 13 days post dosing (preferably through the other catheter or by venipuncture). Blood samples (for example 0.8 ml) were collected in tubes with EDTA buffer (8 mM) (sometimes aprotinin 500 KIU/ml blood was added) and then centrifuged at 4° C. and 1942 G for 10 minutes. […] Based on these measurements, time-plasma concentration profiles for the compound of study are plotted and a so-called non-compartmental pharmacokinetic analysis of the data is performed in WinNonlin v. 5.0 or Phoenix v. 6.2 (Pharsight Inc., Mountain View, Calif., USA) or other relevant software for PK analysis. For most compounds, the terminal part of the plasma-concentration profiles will be linear when drawn in a semi-logarithmic plot, reflecting that after the initial distribution, drug is removed from the body at a constant fractional rate. The rate (lambda Z or is equal to minus the slope of the terminal part of the plot. From this rate, also the terminal half-life may be calculated, as t½=ln(2)/λz (see, e.g., Johan Gabrielsson and Daniel Weiner: Pharmacokinetics and Pharmacodynamic Data Analysis. Concepts & Applications, 3rd Ed., Swedish Pharmaceutical Press, Stockholm (2000)).
Clearance is defined as the dose (D) divided by area under the curve (AUC) on the plasmaconcentration versus time profile (Rowland, M and Tozer T N: Clinical Pharmacokinetics: Concepts and Applications, 3rd edition, 1995 Williams Wilkins)

The target of another data set is T1, glucagon receptor (Homo sapiens, UniProt P47871).
T1 construct: expressed in transfected cells
Kind of data set: Assay (I) Glucagon activity (cAMP biosensor, FLIPR). Type of data set: cell-based.

The nature of data set [2]: Assay (X) Chemical stability assessment by RP-UPLC. Type of data set: physicochemical. The conditions noted are these: pH 8.15, 14 days at 37° C. vs 5° C., 333 μM.

A word on the EC50: it is the concentration at which the effect is half-maximal. Lower therefore signals an effect from little substance.

Each structure is given as a SMILES string. Numbered stars: 1 amine (or outer) side, 2 acyl side, 3 side chain; on linkers, the order of the positions; unused ones are H or OH. Side chains are listed from the residue outwards. Peptide text beside a SMILES is read from it. * marks the point of attachment. C18 diacid = O=C(O)CCCCCCCCCCCCCCCCC(=O)*; γGlu = O=C(O)[C@H](CCC(=O)[*:2])N[*:1]; AEEA = NCCOCCOCC(=O)O

T1 sequence (P47871 26-477): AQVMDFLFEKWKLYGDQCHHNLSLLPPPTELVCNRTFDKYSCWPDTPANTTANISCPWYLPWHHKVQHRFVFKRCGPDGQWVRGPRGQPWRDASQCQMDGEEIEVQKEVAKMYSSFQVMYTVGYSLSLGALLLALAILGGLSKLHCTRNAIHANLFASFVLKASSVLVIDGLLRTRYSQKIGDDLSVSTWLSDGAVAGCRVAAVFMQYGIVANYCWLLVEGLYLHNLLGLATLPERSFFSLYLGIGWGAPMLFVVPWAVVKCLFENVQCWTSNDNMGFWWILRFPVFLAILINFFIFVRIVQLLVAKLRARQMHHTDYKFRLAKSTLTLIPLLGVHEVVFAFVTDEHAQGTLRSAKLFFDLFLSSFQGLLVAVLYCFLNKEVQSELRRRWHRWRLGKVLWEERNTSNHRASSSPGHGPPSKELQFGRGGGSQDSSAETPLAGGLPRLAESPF

Regarding `CC(C)C[C@H](NC(=O)[C@H](Cc1ccc(O)cc1)NC(=O)[C@H](CCCNC(=N)N)NC(=O)[C@H](CO)NC(=O)[C@H](Cc1ccc(O)cc1)NC(=O)[C@H](CC(=O)O)NC(=O)[C@H](CO)NC(=O)[C@@H](NC(=O)[C@H](Cc1ccccc1)NC(=O)[C@@H](NC(=O)CNC(=O)[C@H](CCC(N)=O)NC(=O)[C@H](CO)NC(=O)[C@@H](N)Cc1c[nH]cn1)[C@@H](C)O)[C@@H](C)O)C(=O)N[C@@H](CC(=O)O)C(=O)N[C@@H](C)C(=O)N[C@@H](CCCNC(=N)N)C(=O)N[C@@H](CCCNC(=N)N)C(=O)N[C@@H](C)C(=O)N[C@@H](CCC(N)=O)C(=O)N[C@@H](CC(=O)O)C(=O)N[C@@H](Cc1ccccc1)C(=O)N[C@H](C(=O)N[C@@H](CCCCNC(=O)CC[C@H](NC(=O)CC[C@H](NC(=O)COCCOCCNC(=O)COCCOCCNC(=O)CC[C@H](NC(=O)CCCCCCCCCCCCCCCCC(=O)O)C(=O)O)C(=O)O)C(=O)O)C(=O)N[C@@H](Cc1c[nH]c2ccccc12)C(=O)N[C@@H](CC(C)C)C(=O)N[C@@H](CC(C)C)C(=O)N[C@@H](CO)C(=O)N[C@H](C(=O)O)[C@@H](C)O)C(C)C` [Example 16, N^ε24-[(4S)-4-carboxy-4-[[(4S)-4-carboxy-4-[[2-[2-[2-[[2-[2-[2-[[(4S)-4-carboxy-4-(17-carboxyheptadecanoylamino)butanoyl]amino]ethoxy]ethoxy]acetyl]amino]ethoxy]ethoxy]acetyl]amino]butanoyl]amino]butanoyl]-[Arg^12,Ala^16,Lys^24,Leu^27,Ser^28]-Glucagon] (H-HSQGTFTSDYSRYLDARRAQDFVK([γGlu-γGlu-AEEA-AEEA-γGlu-C18 diacid])WLLST-OH), the half-life in data set [1] was 86.6 h. At glucagon receptor, this compound showed an EC50 of 0.158 nM.
With `CC(C)C[C@H](NC(=O)[C@H](Cc1ccc(O)cc1)NC(=O)[C@H](CCCCN)NC(=O)[C@H](CO)NC(=O)[C@H](Cc1ccc(O)cc1)NC(=O)[C@H](CC(=O)O)NC(=O)[C@H](CO)NC(=O)[C@@H](NC(=O)[C@H](Cc1ccccc1)NC(=O)[C@@H](NC(=O)CNC(=O)[C@H](CCC(N)=O)NC(=O)[C@H](CO)NC(=O)[C@@H](N)Cc1c[nH]cn1)[C@@H](C)O)[C@@H](C)O)C(=O)N[C@@H](CC(=O)O)C(=O)N[C@@H](CCC(=O)O)C(=O)N[C@@H](CCCNC(=N)N)C(=O)N[C@@H](CCCNC(=N)N)C(=O)N[C@@H](C)C(=O)N[C@@H](CCC(N)=O)C(=O)N[C@@H](CC(=O)O)C(=O)N[C@@H](Cc1ccccc1)C(=O)N[C@H](C(=O)N[C@@H](CCCCNC(=O)CC[C@H](NC(=O)CC[C@H](NC(=O)COCCOCCNC(=O)COCCOCCNC(=O)CC[C@H](NC(=O)CCCCCCCCCCCCCCCCC(=O)O)C(=O)O)C(=O)O)C(=O)O)C(=O)N[C@@H](Cc1c[nH]c2ccccc12)C(=O)N[C@@H](CC(C)C)C(=O)N[C@@H](CC(C)C)C(=O)N[C@@H](CO)C(=O)N[C@H](C(=O)O)[C@@H](C)O)C(C)C` [Example 41, N^ε24-[(4S)-4-carboxy-4-[[(4S)-4-carboxy-4-[[2-[2-[2-[[2-[2-[2-[[(4S)-4-carboxy-4-(17-carboxyheptadecanoylamino)butanoyl]amino]ethoxy]ethoxy]acetyl]amino]ethoxy]ethoxy]acetyl]amino]butanoyl]amino]butanoyl]-[Glu16,Lys24,Leu27,Ser28]-Glucagon], the EC50 on glucagon receptor was determined as 0.13 nM. In addition, in data set [2], the “Chemical stability [Purity loss/14 days 37 C.]” value stood at 7.3%.
Taken in the same sequence, the figures for `CC(C)C[C@H](NC(=O)[C@H](Cc1ccc(O)cc1)NC(=O)[C@H](CCCCN)NC(=O)[C@H](CO)NC(=O)[C@H](Cc1ccc(O)cc1)NC(=O)[C@H](CC(=O)O)NC(=O)[C@H](CO)NC(=O)[C@@H](NC(=O)[C@H](Cc1ccccc1)NC(=O)[C@@H](NC(=O)CNC(=O)[C@H](CCC(N)=O)NC(=O)[C@H](CO)NC(=O)[C@@H](N)Cc1c[nH]cn1)[C@@H](C)O)[C@@H](C)O)C(=O)N[C@@H](CCC(=O)O)C(=O)N[C@@H](CO)C(=O)N[C@@H](CCCNC(=N)N)C(=O)N[C@@H](CCCNC(=N)N)C(=O)N[C@@H](C)C(=O)N[C@@H](CCC(N)=O)C(=O)N[C@@H](CC(=O)O)C(=O)N[C@@H](Cc1ccccc1)C(=O)N[C@H](C(=O)N[C@@H](CCCCNC(=O)CC[C@H](NC(=O)CC[C@H](NC(=O)COCCOCCNC(=O)COCCOCCNC(=O)CC[C@H](NC(=O)CCCCCCCCCCCCCCCCC(=O)O)C(=O)O)C(=O)O)C(=O)O)C(=O)N[C@@H](Cc1c[nH]c2ccccc12)C(=O)N[C@@H](CC(C)C)C(=O)N[C@@H](CC(C)C)C(=O)N[C@@H](CO)C(=O)N[C@H](C(N)=O)[C@@H](C)O)C(C)C` [Example 58, N^ε24-[(4S)-4-carboxy-4-[[(4S)-4-carboxy-4-[[2-[2-[2-[[2-[2-[2-[[(4S)-4-carboxy-4-(17-carboxyheptadecanoylamino)butanoyl]amino]ethoxy]ethoxy]acetyl]amino]ethoxy]ethoxy]acetyl]amino]butanoyl]amino]butanoyl]-[Glu15,Lys24,Leu27,Ser28]-Glucagon amide] were 0.134 nM and 7.3%.
The matching figures for `CC(C)C[C@H](NC(=O)[C@H](CC(C)C)NC(=O)[C@H](Cc1c[nH]c2ccccc12)NC(=O)[C@H](CCCCNC(=O)CC[C@H](NC(=O)CC[C@H](NC(=O)COCCOCCNC(=O)COCCOCCNC(=O)CC[C@H](NC(=O)CCCCCCCCCCCCCCCCC(=O)O)C(=O)O)C(=O)O)C(=O)O)NC(=O)[C@@H](NC(=O)[C@H](Cc1ccccc1)NC(=O)[C@H](CC(=O)O)NC(=O)[C@H](CCC(N)=O)NC(=O)[C@H](C)NC(=O)[C@H](CCCNC(=N)N)NC(=O)[C@H](CCCNC(=N)N)NC(=O)[C@H](CC(C)C)NC(=O)[C@H](CC(=O)O)NC(=O)[C@H](CC(C)C)NC(=O)[C@H](Cc1ccc(O)cc1)NC(=O)[C@H](CCCNC(=N)N)NC(=O)[C@H](CO)NC(=O)[C@H](Cc1ccc(O)cc1)NC(=O)[C@H](CC(=O)O)NC(=O)[C@H](CO)NC(=O)[C@@H](NC(=O)[C@H](Cc1ccccc1)NC(=O)[C@@H](NC(=O)CNC(=O)[C@H](CCC(N)=O)NC(=O)[C@H](CO)NC(=O)[C@@H](N)Cc1c[nH]cn1)[C@@H](C)O)[C@@H](C)O)C(C)C)C(=O)NCC(=O)N[C@H](C(=O)O)[C@@H](C)O` [Example 88, N^ε24-[(4S)-4-carboxy-4-[[(4S)-4-carboxy-4-[[2-[2-[2-[[2-[2-[2-[[(4S)-4-carboxy-4-(17-carboxyheptadecanoylamino)butanoyl]amino]ethoxy]ethoxy]acetyl]amino]ethoxy]ethoxy]acetyl]amino]butanoyl]amino]butanoyl]-[Arg12,Leu16,Lys24,Leu27,Gly28]-Glucagon] (H-HSQGTFTSDYSRYLDLRRAQDFVK([γGlu-γGlu-AEEA-AEEA-γGlu-C18 diacid])WLLGT-OH): 0.47 nM and 4.7%.
Regarding `CC[C@H](C)[C@H](NC(=O)[C@H](CC(=O)O)NC(=O)[C@H](CC(C)C)NC(=O)[C@H](Cc1ccc(O)cc1)NC(=O)[C@H](CCCCN)NC(=O)[C@H](CO)NC(=O)[C@H](Cc1ccc(O)cc1)NC(=O)[C@H](CC(=O)O)NC(=O)[C@H](CO)NC(=O)[C@@H](NC(=O)[C@H](Cc1ccccc1)NC(=O)[C@@H](NC(=O)CNC(=O)[C@H](CCC(N)=O)NC(=O)[C@H](CO)NC(=O)[C@@H](N)Cc1c[nH]cn1)[C@@H](C)O)[C@@H](C)O)C(=O)N[C@@H](CCCNC(=N)N)C(=O)N[C@@H](CCCNC(=N)N)C(=O)N[C@@H](C)C(=O)N[C@@H](CCC(N)=O)C(=O)N[C@@H](CC(=O)O)C(=O)N[C@@H](Cc1ccccc1)C(=O)N[C@H](C(=O)N[C@@H](CCCCNC(=O)CC[C@H](NC(=O)CC[C@H](NC(=O)COCCOCCNC(=O)COCCOCCNC(=O)CC[C@H](NC(=O)CCCCCCCCCCCCCCCCC(=O)O)C(=O)O)C(=O)O)C(=O)O)C(=O)N[C@@H](Cc1c[nH]c2ccccc12)C(=O)N[C@@H](CC(C)C)C(=O)N[C@@H](CC(C)C)C(=O)N[C@@H](CO)C(=O)N[C@H](C(=O)O)[C@@H](C)O)C(C)C` [Example 11, N^ε24-[(4S)-4-carboxy-4-[[(4S)-4-carboxy-4-[[2-[2-[2-[[2-[2-[2-[[(4S)-4-carboxy-4-(17-carboxyheptadecanoylamino)butanoyl]amino]ethoxy]ethoxy]acetyl]amino]ethoxy]ethoxy]acetyl]amino]butanoyl]amino]butanoyl]-[Ile^16,Lys^24,Leu^27,Ser^28]-Glucagon], at glucagon receptor, the midpoint of the response, the EC50, lay at 0.084 nM. Also, the “Chemical stability [Purity loss/14 days 37 C.]” value in data set [2] worked out at 6.2%.
